Source: US20090012152A1, “Use of Tetramic Acid Derivatives for Controlling Insects from the Genus of the Plane Lice (Sternorrhyncha)” (Bayer CropScience Aktiengesellschaft, priority 2005, published 2009)

Tests used:
Type in all cases: in vivo
[1] = tested on: Pulvinaria aethiopicus; experiment: Example 10: mandarin trees treated against Pulvinaria aethiopicus; settings: 45 days after last of two treatments, on fruits, % a.i.: mineral oil 0.251 + pyriproxifen 0.003, I-9 0.0096, I-2 0.0144
Method: In three replications, about 6-year-old mandarin trees of the cultivar “Naartje” are treated against Pulvinaria aethiopicus. Two applications are carried out at an interval of 32 days as irradication treatment using a knapsack operated with pressurized air. Here, the active compounds Example (I-9) (240 SC) and Example (I-2) (240 SC) are tested against a commercial tank mix of a mineral oil (835 EC) which is commercially available in South Africa and customarily used in this country and pyriproxifen (100 EC) at the stated amounts. The application rate is 8.3 l of water/tree.
Evaluation is carried out 45 days after the last treatment by rating the kill in percent on the fruits.

[2] = tested on: Bemisia tabaci; experiment: Example 38: melons treated against Bemisia tabaci; settings: nymphs on leaves, g a.i./ha: Confidor 100, I-4 72
Method: In three replications, plots of a size of about 7.5 m^2 with melons of the cultivar “Piel DE Sapo” are treated against Bemisia tabaci. The application is carried out with a motor-operated knapsack sprayer. Here, the active compound Example (I-4) (240 SC), in a tank mix with 0.1% of a.i. of rapeseed oil methyl ester (500 EW), and the commercial standard Confidor (200 SL) are applied at the stated application rates. Two applications are carried out, at an interval of 7 days and at an application rate of 233 l of water/ha.
Evaluation is carried out 7 and 15 days after the second treatment by rating the kill of the animals (nymphs) on the leaves.

[3] = tested on: Psylla piri; experiment: Example 5: pear trees treated against Psylla piri; settings: nymphs on shoots, g a.i./ha/m crown height: amitraz 266, I-4 72
Method: In three replications, pear trees of the cultivar “Williams Christ” are treated against Psylla piri. Application is shortly before the eggs hatch. The application is carried out using a barrow-mounted sprayer operated with pressurized air. Here, the active compound Example (I-4) (240 SC) is tested in a tank mix with 0.1% a.i. rapeseed oil methyl ester (500 EW) at the stated amount against the standard amitraz (200 EC) at the stated amount. The application rate is 1000 l of water/ha.
Evaluation is carried out 7, 14 and 21 days after the treatment by rating the kill of the nymphs on the shoots.

[4] = tested on: Myzus persicae; experiment: Example 50: tomatoes treated against Myzus persicae; settings: nymphs on leaves, g a.i./ha: acetamiprid 50, I-9 36, I-4 48
Method: In two replications, plots of a size of about 43 m^2 with tomatoes of the cultivar “Yaqui” are treated against Myzus persicae. The application is carried out using a motor-operated knapsack sprayer. Here, the active compounds Example (I-9) (240 SC) and Example (I-4) (240 SC), in a tank mix with 0.1% a.i. of rapeseed oil methyl ester (500 EW), and the standard acetamiprid (20 WP) are applied at the stated application rates. The application rate is 208 l of water/ha.
Evaluation is carried out 3 and 10 days after the treatment by rating the kill of the nymphs on the leaves.

[5] = tested on: Pemphigus bursarius; experiment: Example 3: chrysanthemums, lettuce root aphid; settings: on roots, spray on above-ground parts 96 g of a.i./ha
Method: In three replications, in each case 10 about 5-month-old chrysanthemums (Camilla) in 2 l-vessels are treated against the lettuce root aphid Pemphigus bursarius. Here, the active compound Example (I-4) (240 SC) is applied with a knapsack sprayer operated by pressurized air at the beginning of the infestation at the stated application rates to the above-ground parts of the plants. The soil is covered with a film. The application rate is 600 l of water/ha. 0.1% a.i. of rapeseed oil methyl ester (500 EW) is added to the spray liquor. Omethoate as drip irrigation in a concentration of 0.1% is used for comparison. The application is carried out two days later.
The kill in percent is determined on the roots. […]

[6] = tested on: Aulacorthum solani; experiment: Example 46: head lettuce treated against Aulacorthum solani; settings: nymphs on plants, g a.i./ha: endosulfan 1120, I-4 48
Method: In four replications, plots of a size of about 33 m^2 with head lettuce of the cultivar “PIC 714” are treated against Aulacorthum solani, Macrosiphum euphorbiae and Myzus persicae. The application is carried out using a tractor sprayer. Here, the active compound Example (I-4) (240 SC), in a tank mix with 0.2% a.i. of rapeseed oil methyl ester (500 EW), is tested against the commercial standard endosulfan (360 EC), at the stated application rates. The application rate is 187 l of water/ha. Two treatments are carried out, at an interval of 22 days.
Evaluation is carried out 8, 22, 30 and 40 days after the first treatment by rating the kill of the nymphs on the plants.

[7] = tested on: Myzus persicae; experiment: Example 49: potatoes treated against Myzus persicae; settings: live nymphs on leaves, Henderson and Tilten, g a.i./ha: Tamaron 585, I-4 48
Method: In four replications, plots of a size of about 7.5 m^2 with potatoes of the cultivar “BP 1” are treated against Myzus persicae. The application is carried out using a knapsack sprayer operated with pressurized air. Here, the active compound Example (I-4) (240 SC), in a tank mix with 0.2% a.i. of rapeseed oil methyl ester (500 EW), and the commercial standard Tamaron (585 SL) are tested at the stated application rates. Two applications are carried out, at an interval of 7 days. The application rate is 500 l of water/ha.
Evaluation is carried out 7 and 13 days after the first treatment by counting the live animals (nymphs) on the leaves. The efficacy is then calculated by calculating the effect on the population in percent according to Henderson and Tilten.

Structure (SMILES) | Kill (%) [1] [%] | Kill (%) 7 d ([2]; 7 d after second treatment) [%] | Kill (%) 15 d ([2]; 15 d after second treatment) [%] | Kill (%) 7 d ([3]; 7 d after treatment) [%] | Kill (%) 14 d ([3]; 14 d after treatment) [%] | Kill (%) 21 d ([3]; 21 d after treatment) [%] | Kill (%) 3 d ([4]; 3 d after treatment) [%] | Kill (%) 10 d ([4]; 10 d after treatment) [%] | Kill (%) 9 d ([5]; 9 d) | Kill (%) (17 d) ([5]; 17 d) | Kill (%) 8 d ([6]; 8 d after first of two treatments) [%] | Kill (%) 22 d ([6]; 22 d after first of two treatments) [%] | Kill (%) 30 d ([6]; 30 d after first of two treatments) [%] | Kill (%) 40 d ([6]; 40 d after first of two treatments) [%] | Effect (%) 7 d ([7]; 7 d after first of two treatments) [%] | Effect (%) 13 d ([7]; 13 d after first of two treatments) [%]
CCOC(=O)OC1=C(c2cc(C)ccc2Br)C(=O)NC12CCC(OC)CC2 (stereo not shown) [Example (I-2)] | 72 | – | – | – | – | – | – | – | – | – | – | – | – | – | – | –
CCOC(=O)OC1=C(c2cc(C)ccc2C)C(=O)NC12CCC(OC)CC2 (stereo not shown) [Example (I-4)] | – | 85.3 | 95.5 | 100 | 100 | 100 | 92.6 | 95.9 | 46.9 (9 d) % | 80.4 (17 d) % | 100 | 99 | 79 | 87 | 67 | 100
